Reference: patent publication US6380465B1, “Cytochrome P450 enzymes and related compounds and methods” (University of Kentucky Research Foundation, priority 1998, dated 2002)

What was measured:
[1] = test system: CYP72A1 P450; assay: Metabolism of pesticide substrates by the CYP72A1 P450 expressed with a reductase (yeast microsomes, [14C]-labeled substrates, HPLC); format: in vitro ADME, Zea mays (maize); conditions: expressed in the presence of a reductase; chromatographs FIGS. 8-11
Text: Both genes (CYP72A1 and CYP92A1), obtained as described in Example 1, were introduced into pYeDP60 vector for yeast expression. CYP72A1 was introduced as a full length gene with in-frame Met 1 and 8 as the start codons, while CYP92A1 was modified for the expression.
Expression strategies include using both full length or truncated (Met 8 start site) CYP72A1 cDNA in yeast strains WAT11, WAT21 W (R) from Philippe Urban and Denis Pompon, with, optionally, yeast vector pYeDP60. Expression is ideally achieved with full length cDNA and WAT11. Expression may also require 36 hours rather than 24 hours of galactose induction prior to microsome preparation. Glucose (SGI) or galactose (SLI) media prior to induction will give expression.
Metabolism experiments can be accomplished using microsomes prepared from yeast cells. The substrates can be incubated with [^14C]-labeled substrates and products analyzed by HPLC.

[2] = test system: CYP72A1; assay: Induction of CYP72A1 expression by NA-treatment (Northern blot, maize seedlings); format: in vivo; conditions: FIG. 5
Experimental: (§1) A maize cDNA library was constructed from napthalic anhydride (NA)-treated Pioneer 3343IR 3.5-day-old seedlings using lambda-ZAPII vector kit (Stratagene).
(§2) Northern blot analysis was performed with total RNA isolated from control and […] and hybridized under high stringency conditions. To estimate the copy number, Southern blot analysis was performed using genomic DNA from 3343IR maize which was digested with SacI EcoRV, EcoRI, HindIII, and BamHI. The analysis was carried out under high stringency (65 degrees Celsius in 0.1×SSC and 0.1% SDS).
(§3) Based on the results of the genomic Southern blot analysis, the hybridization patterns were consistent with those predicted from the restriction patterns of the corresponding cDNAs. […] Certain physico-chemical characteristics for the deduced proteins, antigenicity and secondary structure were calculated using Network Protein Sequence Analysis at IBCP, France.

[3] = test system: CYP92A1; assay: Induction of CYP92A1 expression by NA-treatment (Northern blot, maize seedlings); format: in vivo; conditions: FIG. 5
Experimental: as §1, §2, §3

[4] = test system: corn line GA209; conditions: FIG. 12, thesis of Laura Boldt; cited from earlier work
[5] = test system: soybean P450; conditions: cited from earlier work
[6] = molecular target: T1, CYP73A1 (Helianthus tuberosus, UniProt Q04468); conditions: cited from earlier work
T1 sequence (Q04468 1-505): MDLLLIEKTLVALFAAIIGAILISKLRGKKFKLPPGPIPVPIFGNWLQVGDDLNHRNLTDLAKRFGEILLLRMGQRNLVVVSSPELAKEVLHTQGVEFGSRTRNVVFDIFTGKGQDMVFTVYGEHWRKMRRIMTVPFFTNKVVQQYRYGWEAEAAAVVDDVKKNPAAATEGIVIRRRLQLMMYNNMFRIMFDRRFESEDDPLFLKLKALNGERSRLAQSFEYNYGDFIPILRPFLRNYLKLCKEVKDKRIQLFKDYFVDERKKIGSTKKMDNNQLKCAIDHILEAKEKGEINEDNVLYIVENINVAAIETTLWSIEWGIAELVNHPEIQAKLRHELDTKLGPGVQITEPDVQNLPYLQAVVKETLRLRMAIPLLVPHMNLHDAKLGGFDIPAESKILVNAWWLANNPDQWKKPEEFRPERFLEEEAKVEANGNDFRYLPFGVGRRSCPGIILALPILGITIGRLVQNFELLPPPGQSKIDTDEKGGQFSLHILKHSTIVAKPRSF

[7] = test system: multiple pesticide metabolizing P450 in corn; conditions: FIG. 13, cited from earlier work

Compound	metabolism of the substrate by the CYP72A1 P450 [1]	sensitivity of corn line GA209 to the herbicide [4]	further results
O=C(O)COc1ccc(Cl)cc1Cl [2,4-D]	Unmetabolized		
O=C1OC(=O)c2cccc3cccc1c23 [NA, napthalic anhydride]			induction of CYP72A1 expression [2]: highly induced; induction of CYP92A1 expression [3]: induced significantly less
CCc1cccc(CC)c1N(COC)C(=O)CCl [alachlor]	Unmetabolized		
CC(C)N1C(=O)c2ccccc2NS1(=O)=O [bentazon]	shown to metabolize	sensitive	
COc1cc(Cl)nc(NC(=O)NS(=O)(=O)c2ccccc2C(=O)O)n1 [chlorimuron]	shown to metabolize		
Cc1ccc(NC(=O)N(C)C)cc1Cl [chlortoluron]	shown to metabolize		metabolism by a soybean P450 [5]: shown to metabolize; metabolism by CYP73A1 [6]: shown to metabolize
CCc1cnc(C2=NC(C)(C(C)C)C(=O)N2)c(C(=O)O)c1 (stereo not drawn) [imazethapyr]		sensitive	
CON(C)C(=O)Nc1ccc(Cl)c(Cl)c1 [linuron]	Unmetabolized		metabolism by a soybean P450 [5]: shown to metabolize
CCOC(=O)CC(SP(=S)(OC)OC)C(=O)OCC (stereo not drawn) [malathion]	shown to metabolize		
COc1cc(OC)nc(NC(=O)NS(=O)(=O)c2ncccc2C(=O)N(C)C)n1 [nicosulfuron]		sensitive	
O=C(Nc1nc(OC(F)F)cc(OC(F)F)n1)NS(=O)(=O)c1ccccc1C(=O)O [primisulfuron]		sensitive	
CCOP(=S)(OCC)SCS(=O)(=O)C(C)(C)C [terbufos-sulfone]			inhibition of in-vitro metabolism of bentazon ([7]; substrate bentazon): inhibited; inhibition of in-vitro metabolism of chlorimuron ([7]; substrate chlorimuron): inhibited; inhibition of in-vitro metabolism of imazethapyr ([7]; substrate imazethapyr): inhibited; inhibition of in-vitro metabolism of malathion ([7]; substrate malathion): inhibited; inhibition of in-vitro metabolism of nicosulfuron ([7]; substrate nicosulfuron): inhibited
